According to ChEMBL document CHEMBL1201862, “PubChem BioAssay data set” (2004):
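Protocol summary: plate cells (96-well), add compound at 5 concentrations, incubate 48 h, interpolate endpoints linearly. The concentration for 50% growth inhibition is given as GI50.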 The source made the active and inactive calls. No stated cut-off is given here; in the data, active = GI50 up to about 1.1 µM and inactive = higher.

What was measured:
Assay in all cases: inhibition of tumour cell growth, NCI panel, 48 h
[1] = test system: A498
[2] = test system: A549
[3] = test system: CAKI-1
[4] = test system: CCRF-CEM
[5] = test system: COLO 205
[6] = test system: DLD-1
[7] = test system: DMS-114
[8] = test system: DMS-273
[9] = test system: EKVX
[10] = test system: HCC 2998
[11] = test system: HCT-116
[12] = test system: HCT-15
[13] = test system: HL-60
[14] = test system: HOP-18
[15] = test system: HOP-62
[16] = test system: HOP-92
[17] = test system: HT-29
[18] = test system: IGROV-1
[19] = test system: K562
[20] = test system: KM-20L2
[21] = test system: KM12
[22] = test system: LOX IMVI
[23] = test system: M19-MEL
[24] = test system: MCF7
[25] = test system: MOLT-4
[26] = test system: Malme-3M
[27] = test system: NCI-H226
[28] = test system: NCI-H23
[29] = test system: NCI-H460
[30] = test system: NCI-H522
[31] = test system: NCI/ADR-RES
[32] = test system: OVCAR-3
[33] = test system: OVCAR-4
[34] = test system: OVCAR-5
[35] = test system: OVCAR-8
[36] = test system: RPMI-8226
[37] = test system: RXF 393
[38] = test system: SF-268
[39] = test system: SF-295
[40] = test system: SF-539
[41] = test system: SK-MEL-28
[42] = test system: SK-MEL-2
[43] = test system: SK-MEL-5
[44] = test system: SK-OV-3
[45] = test system: SN12C
[46] = test system: SNB-19
[47] = test system: SNB-75
[48] = test system: SNB-78
[49] = test system: SW-620
[50] = test system: U-251
[51] = test system: UACC-257
[52] = test system: UACC-62
[53] = test system: UO-31
[54] = test system: XF498
[55] = test system: 786-0
[56] = test system: ACHN
[57] = test system: BT-549
[58] = test system: DU-145
[59] = test system: Hs-578T
[60] = test system: M14
[61] = test system: MDA-MB-231
[62] = test system: MDA-MB-435
[63] = test system: MDA-N
[64] = test system: PC-3
[65] = test system: SR
[66] = test system: T47D
[67] = test system: TK-10

## CCN(CC)CCCOC(=O)/C=C/c1c(C)[nH]c(=O)[nH]c1=O
[1]
  GI50: > 0.0951 mM (inactive)
[2]
  GI50: > 0.625 mM (inactive)
[3]
  GI50: > 0.625 mM (inactive)
[4]
  GI50: > 0.625 mM (inactive)
[5]
  GI50: > 0.625 mM (inactive)
[6]
  GI50: > 0.625 mM (inactive)
[7]
  GI50: > 0.625 mM (inactive)
[8]
  GI50: > 0.625 mM (inactive)
[9]
  GI50: > 0.625 mM (inactive)
[10]
  GI50: > 0.625 mM (inactive)
[11]
  GI50: > 0.625 mM (inactive)
[12]
  GI50: > 0.625 mM
[13]
  GI50: > 0.625 mM (inactive)
[14]
  GI50: > 0.625 mM (inactive)
[15]
  GI50: > 0.625 mM (inactive)
[16]
  GI50: 0.0569 mM (inactive)
[17]
  GI50: > 0.394 mM (inactive)
[18]
  GI50: > 0.625 mM (inactive)
[19]
  GI50: > 0.625 mM (inactive)
[20]
  GI50: > 0.625 mM (inactive)
[21]
  GI50: > 0.625 mM (inactive)
[22]
  GI50: > 0.625 mM (inactive)
[23]
  GI50: > 0.625 mM (inactive)
[24]
  GI50: > 0.625 mM (inactive)
[25]
  GI50: > 0.625 mM (inactive)
[26]
  GI50: > 0.625 mM (inactive)
[27]
  GI50: > 0.625 mM (inactive)
[28]
  GI50: > 0.625 mM (inactive)
[29]
  GI50: > 0.625 mM (inactive)
[30]
  GI50: > 0.625 mM (inactive)
[31]
  GI50: > 0.625 mM (inactive)
[32]
  GI50: > 0.625 mM (inactive)
[33]
  GI50: > 0.394 mM (inactive)
[34]
  GI50: > 0.625 mM (inactive)
[35]
  GI50: 0.135 mM (inactive)
[36]
  GI50: > 0.625 mM (inactive)
[37]
  GI50: > 0.0991 mM (inactive)
[38]
  GI50: > 0.625 mM (inactive)
[39]
  GI50: 0.525 mM (inactive)
[40]
  GI50: > 0.625 mM (inactive)
[41]
  GI50: > 0.625 mM (inactive)
[42]
  GI50: > 0.394 mM (inactive)
[43]
  GI50: > 0.625 mM (inactive)
[44]
  GI50: > 0.625 mM (inactive)
[45]
  GI50: > 0.243 mM (inactive)
[46]
  GI50: > 0.625 mM (inactive)
[47]
  GI50: > 0.625 mM (inactive)
[48]
  GI50: 0.542 mM (inactive)
[49]
  GI50: > 0.625 mM (inactive)
[50]
  GI50: > 0.625 mM (inactive)
[51]
  GI50: > 0.625 mM (inactive)
[52]
  GI50: > 0.625 mM (inactive)
[53]
  GI50: > 0.625 mM (inactive)
[54]
  GI50: > 0.625 mM (inactive)

## CC(C)[C@](O)(C(=O)OCC1=CC[N+]2([O-])CC[C@@H](O)[C@@H]12)[C@H](C)O (some centres undefined) [INDICINE N-OXIDE]
[55]
  GI50: > 9.27 mM (inactive)
[1]
  GI50: 8.97 mM (inactive)
[2]
  GI50: 5.96 mM (inactive)
[56]
  GI50: 4.6 mM (inactive)
[57]
  GI50: > 10 mM (inactive)
[3]
  GI50: 6.52 mM (inactive)
[4]
  GI50: > 9.16 mM (inactive)
[5]
  GI50: > 5.94 mM (inactive)
[6]
  GI50: > 10 mM (inactive)
[8]
  GI50: 6.08 mM (inactive)
[58]
  GI50: > 10 mM (inactive)
[9]
  GI50: > 9.06 mM (inactive)
[10]
  GI50: > 10 mM (inactive)
[11]
  GI50: > 10 mM (inactive)
[12]
  GI50: > 10 mM
[13]
  GI50: 3.23 mM (inactive)
[14]
  GI50: > 10 mM (inactive)
[15]
  GI50: 3.59 mM (inactive)
[16]
  GI50: > 9.73 mM (inactive)
[17]
  GI50: > 10 mM (inactive)
[59]
  GI50: > 5.43 mM (inactive)
[18]
  GI50: > 9.33 mM (inactive)
[19]
  GI50: > 10 mM (inactive)
[20]
  GI50: > 10 mM (inactive)
[21]
  GI50: > 10 mM (inactive)
[22]
  GI50: > 7.8 mM (inactive)
[60]
  GI50: > 10 mM (inactive)
[23]
  GI50: > 10 mM (inactive)
[24]
  GI50: > 10 mM (inactive)
[61]
  GI50: > 10 mM (inactive)
[62]
  GI50: > 10 mM (inactive)
[63]
  GI50: > 10 mM (inactive)
[25]
  GI50: 8.57 mM (inactive)
[26]
  GI50: > 9.42 mM (inactive)
[27]
  GI50: > 10 mM (inactive)
[28]
  GI50: > 6 mM (inactive)
[29]
  GI50: 5.96 mM (inactive)
[30]
  GI50: > 7.41 mM (inactive)
[31]
  GI50: > 10 mM (inactive)
[32]
  GI50: 9.91 mM (inactive)
[33]
  GI50: > 10 mM (inactive)
[34]
  GI50: > 10 mM (inactive)
[35]
  GI50: 8.11 mM (inactive)
[64]
  GI50: > 10 mM (inactive)
[36]
  GI50: > 10 mM (inactive)
[37]
  GI50: 7.46 mM (inactive)
[38]
  GI50: > 9.93 mM (inactive)
[39]
  GI50: > 10 mM (inactive)
[40]
  GI50: > 9.08 mM (inactive)
[41]
  GI50: > 10 mM (inactive)
[42]
  GI50: > 10 mM (inactive)
[43]
  GI50: > 7 mM (inactive)
[44]
  GI50: > 10 mM (inactive)
[45]
  GI50: 8.87 mM (inactive)
[46]
  GI50: > 10 mM (inactive)
[47]
  GI50: > 9.75 mM (inactive)
[48]
  GI50: > 10 mM (inactive)
[65]
  GI50: 4.63 mM (inactive)
[49]
  GI50: > 10 mM (inactive)
[66]
  GI50: > 10 mM (inactive)
[67]
  GI50: > 10 mM (inactive)
[50]
  GI50: > 8.57 mM (inactive)
[51]
  GI50: > 10 mM (inactive)
[52]
  GI50: 7.21 mM (inactive)
[53]
  GI50: > 10 mM (inactive)
